According to patent US20250017841A1, “COMPOUND CONTAINING ASCORBIC ACID DERIVATIVE” (DR'S CHOICE CO., LTD., priority 2021, published 2025):
Structures can show the parent of a compound that is named as a salt.

Columns and labels:
Assay type in all cases: physicochemical
[1] = Example 2: degree of browning (chromaticity) on storage with added amino acid mixture; conditions: 4% solution, room temperature
Experimental: 4% of ascorbic acid (ASA) is dissolved in 200 ml of water, and the solution is adjusted to pH 5.0 with a 1M sodium hydroxide solution to obtain a test solution. Ascorbic acid 2-glucoside lysine salt (ASA2-G⋅Lys) (Production Example 2) is dissolved in the same manner by 4% to prepare a test solution. An amino acid mixture (histidine 1.5%, alanine 1.28, leucine 2.6%) was added to and dissolved in each test solution, and the solution was stored (at room temperature) for 20 months. Each test solution was collected every designated month, the absorption spectrum (wavelength: 480 nm) was measured, the degree of browning (chromaticity) was evaluated, and the results are shown in FIG. 4.

[2] = Example 1: degree of browning (chromaticity) on storage with added glycine; conditions: 1.5% solution, room temperature
Experimental: (Effect of addition of ascorbic acid 2-glucoside arginine salt on change in degree of browning (chromaticity) of ascorbic acid by addition of amino acid) 100 ml of water was taken to dissolve 1.5% of ascorbic acid (ASA), and the solution was adjusted to pH 5.0 with a 1M of sodium hydroxide solution to obtain a test solution. Ascorbic acid 2-glucoside arginine salt (ASA2-G⋅Arg) is used as a test solution by dissolving 1.5% of the product of Production Example 1 in 100 ml of water. To each test solution, 0.2% glycine was added and dissolved to prepare a solution, and the solution was stored (at room temperature) for 20 months. This test solution was collected every designated month, the absorption spectrum (wavelength: 480 nm) was measured, the degree of browning (chromaticity) was evaluated, and the results are shown in FIG. 3.
At time 0, the initial state immediately after the preparation was visually observed. In the other designated months, a spectrophotometer (absorption spectrum: wavelength 480 nm) was used for the measurement. In the case of ascorbic acid, browning started to occur at 4 months, transparency was visually observed, and light brown color remarkably appeared at 14 months. Meanwhile, in the ASA2-G⋅Arg added system, the initial state was confirmed.

[3] = Test system: browning of ascorbic acid caused by addition of an amino acid; conditions: 10 days after production
Experimental: For a reaction solution of ascorbic acid (1%) and amino acid (0.12%), the difference in degree of browning (chromaticity) based on the type of amino acid was examined for a 10 mM of phosphate citrate buffer solution pH 7.0. • Measurement wavelength: 480 nm, measurement time: 10 days after production

Row | Structure (SMILES) | appearance (color) ([1]; amino acid mixture, 20 months) | time after which browning appeared ([1]; pH 5.0, amino acid mixture (histidine, alanine, leucine)) | time at which browning started to occur ([2]; pH 5.0, 0.2% glycine) | time at which light brown color remarkably appeared ([2]; pH 5.0, 0.2% glycine) | degree of browning (chromaticity) ([3]; ascorbic acid 1% + amino acid 0.12% (glycine, histidine, lysine or alanine), 10 mM phosphate citrate buffer pH 7.0, 480 nm) | degree of browning ([3]; ascorbic acid 1% + glycine or histidine 0.12%, pH 7.0, 480 nm) | appearance (transparency), visual observation ([2]; 0.2% glycine, 20 months) | absorbance (Abs) in the absorption spectrum ([2]; 480 nm, 0.2% glycine, 20 months) | absorbance (Abs) of the absorption spectrum ([1]; 480 nm, amino acid mixture, 20 months)
1 | O=C1O[C@H]([C@@H](O)CO)C(O)=C1O [ascorbic acid, (R)-3,4-dihydroxy-5-((S)-1,2-dihydroxyethyl) furan-2 (5H)-one] | reddish brown color | 4 months | 4 months | 14 months | high | remarkable |  |  | 
2 | O=C1OC([C@@H](O)CO)C(O)=C1OC1O[C@H](CO)[C@@H](O)[C@H](O)[C@H]1O (stereo partly shown) [ASA2-G⋅Arg, ascorbic acid 2-glucoside arginine salt] |  |  |  |  |  |  | initial state | 0.01 | 
3 | O=C1OC([C@@H](O)CO)C(O)=C1OC1O[C@H](CO)[C@@H](O)[C@H](O)[C@H]1O (stereo partly shown) [ASA2-G⋅Lys, ascorbic acid 2-glucoside lysine salt] | extremely light reddish brown color |  |  |  |  |  |  |  | 0.017
